Laboratory results reported in ChEMBL document CHEMBL4837205, “Design, synthesis and biological evaluations of a series of Pyrido[1,2-a]pyrimidinone derivatives as novel selective FGFR inhibitors” (Eur J Med Chem, 2021).
≈ marks a conversion by molar mass, not a printed value.

Test: physchem
Settings: buffer, pH 7.4

COc1cc(OC)cc(N(CCNC(C)C)c2ccc3ncc(-c4cnn(C5CN(C(C)=O)C5)c4)c(=O)n3c2)c1
solubility: 0.0591 mg/mL (≈ 108 µM)

COc1cc(OC)cc(N(CCNC(C)C)c2ccc3ncc(-c4cnn(CCN(C)C)c4)c(=O)n3c2)c1
solubility: < 0.01 mg/mL
